In patent US20090208597A1, “HEAT PROCESSED VEGETABILIC FIBER PREPARATION AND ITS USE AS INHIBITOR OF THE EFFECTS OF CARCINOGENIC SUBSTANCES IN HUMANS OR ANIMALS” (ESSENTYS AB, priority 2006, published 2009):

Columns and labels:
[1] = system: small intestine of male BALB mice; assay: Povex in food of mice treated with acrylamide, histomorphometry of small intestine (Example 4); format: in vivo
Experimental: The aim of this study was to investigate if regular and heat Povex can protect small intestine against acrylamide toxic influence. The point was to establish what histological changes can acrylamide cause to small intestine tissue and if Povex can reverse or decrease these possible changes.
Three months experiment was performed on males BALB mince. Two doses of acrylamide (2 mg/day/kg b.w., and 0.1 mg/day/kg b.w.) in drinking water and two types of Povex heated (Treated) and normal (Untreated) added to food were provided for animals.
Histology and histomorphometry of small intestine was performed. The examined parameters were: fractal dimension of small intestine, mitosis inside crypts and apoptosis count per mm^2 of tissue.
Seventy-five 9-weeks old male and seventy-five 7 to 9 weeks old female BALB mice (Laboratory), weighing about 20 g, were used in whole experiment. Mice were housed ten per box of the same sex. This part of experiment and analysis obtained from is made on twenty eight male BALB mice.
Three types of formulated mixtures were manufactured: • Labodiet MLF control. The receipt of this food is based on the energy needs according to the Polish norm for feeding domestic animals. • Labodiet MLF 2% n Povex. The receipt of this food is based one the control one. The food was enriched with 2% of Povex. • Labodiet MLF 2% praz Povex. The receipt of this food is based one the control one. The food was enriched with 2% of heated Povex till 160° C.
Before the beginning of the experiment, we measured water consumption in 24 hours of 5 groups of mice. The average of daily-consumption was 10 mL/day/kg b.w. This consumption was used to calculate the concentration of the two doses of acrylamide: The high dose was calculated from 2 mg/day/kg b.w. and the low dose from 0.1 mg/day/kg b.w. The first dilution of acrylamide in tap water was made directly with the powder and 3 L of both concentrations were prepared. […] The volume left in the bottle was measured and put in a table to follow the consumption of acrylamide through the water. […]

[2] = system: BALB mice; assay: Potato fiber supplemented diet in acryl amide exposed mice, histomorphology of intestine and liver (Example 1); format: in vivo; conditions: acryl amide added to the drinking water; 90 days
Experimental: The main aim of these studies was to see if a potato fiber supplemented diet had any effect on acryl amide induced cancer development in mice.
Seventy five 9-weeks old male and seventy five 7 to 9 weeks old female BALB mice (Laboratory), weighing about 20 g, were used. Mice were housed ten per box of the same sex. Solid food and water were allowed in sufficient quantities. The animals were kept in an animal house where the humidity and temperature were controlled and where a 12 h light period was kept. The experiment has been reviewed and approved by Lund University ethic committee, application M140-03.
2/ Labodiet MLF 2% and potato fiber preparation (Povex®). The receipt of this food/feed is based on the control food/feed. The food/feed was enriched with 2% of Povex®.
3/ Labodiet MLF 2% heated potato fiber preparation (Povex®). […]
It was found suitable to use the commercial (Sigma-Aldrich, St Louis, Mo.) acryl amide for electrophoresis in the form of powder (minimum 99%). […] Before the beginning of the experiment, the water consumption during 24 h of 5 groups of mice was measured. […] This consumption was used to calculate the concentration of the two doses of acryl amide: The high dose was calculated from 2 mg/day/kg b.w. and the low dose from 0.1 mg/day/kg b.w. […] The volume left in the bottle was measured and listed in a table in order to follow the consumption of acryl amide through the water. […]

Structure (SMILES): C=CC(N)=O [Acryl amide, acryl amide]
- number of mitosis inside small intestine crypt ([1]; small and large dose of AA with standard food vs control group): significant decrease
- number of apoptosis/mm^2 in small intestine tissue ([1]; standard food + large or low dose of AA): elevated number of apoptotic cells
- fractal dimension of small intestine mucosa ([1]; standard food and low dose of AA (0.1 mg) vs control group): difference between control group and animals getting standard food and low dose of AA
- histomorphological parameters of the intestine and liver [2]: affected a majority of the measured histomorphological parameters
